Measured values reported in patent US8093210B2, “Treatment of sepsis with 5-ethyl-1-phenyl-2(1H)-pyridone” (Solanan, Inc., priority 2008, dated 2012).

Experiments:
[1] = tested on: LPS/D-galactosamine model of septic shock; assay: Lethal LPS/D-galactosamine-induced shock, survival of mice (Example 1); type: in vivo; details: for mortality: 72 hrs post-treatment
Experimental: Mice were treated with 5-EPP after inducing shock with lipopolysaccharide (LPS) pursuant to established models for lethal LPS-induced shock. The method described by Galanos C, Freudenberg M A, Reutter W. Proc Natl Acad Sci USA. 1979 November; 76 (11):5939-43 was followed. The survival of the mice after treatment with various doses of the agent in LPS/D-galactosamine model of septic shock was monitored. All agents were injected simultaneously via the intraperitoneal route and the response compared to a placebo agent (saline).
All data were analyzed by Fisher's exact test (Prism™ for Window 4.02, Graphpad Software, Inc., San Diego, Calif.). A value of P<0.05 was considered to be statistically significant.
Table 1 clearly illustrates that 5-ethyl-1-phenyl-2(1H)-pyridone (5-EPP) protected mice from lethal LPS/D-galactosamine-induced shock at 72 hrs post-treatment.

[2] = tested on: cecal ligation and puncture (CLP) model of sepsis; assay: Serum biomarkers and recoverable serum volume in cecal ligation and puncture (CLP) model of sepsis (Example 4); type: in vivo, Male Swiss-Webster mice; details: for level of blood urea nitrogen (BUN) / recoverable blood-serum volume (average volume of serum) / serum level of alanine transaminase (ALT) / serum level of creatine kinase / serum level of glucose: 200 mg/kg ip 2 h before CLP, mean ± SEM
Experimental: Cecal ligation and puncture (CLP) is a more advanced model of septic shock than those involving lipopolysaccharide (LPS). In this model, as described by Wichterman K A, Baue A E, Chaudry I H (J Surg Res. 1980, 29; 189-201), mice are given intraperitoneal (IP) injections of the test compound or saline (control) prior to the beginning of the surgery. The mice are then anesthetized and a laparotomy is performed. The cecum is isolated and separated from the rest of the intestines by tying it at its base with a suturing thread. The cecum is then punctured with a needle. This facilitates influx of the colonic microflora into the abdominal cavity, which results in polymicrobial-induced peritonitis. Unlike the endotoxin model of septic shock, which is initiated by purified bacterial cell wall products, lipopolysaccharide (LPS), that simulates an acute septic shock, the CLP model more closely mimics clinically encountered signs of septic shock seen in humans as it is triggered by living bacteria.
Male Swiss-Webster mice, seven weeks old, were injected with 5-EPP (200 mg/kg) or saline (control) by intraperitoneal route two hours prior to the beginning of the surgery. They were anesthetized by a mixture of xylazine and ketamine, and a laparotomy was performed. The cecum was separated from the rest of the intestine, ligated with suture, and then punctured with an 18 gauge needle. Blood was collected by cardiac puncture 3, 6, or 12 hours after CLP and the serum isolated by centrifugation. Analysis of serum transaminases, blood urea nitrogen, creatine kinase, and glucose was carried out by a commercial company (Idexx Laboratories, West Sacramento, Calif.).
The results are reported as the mean±standard error of the mean with the number of animals in parentheses for each group. The statistical analysis for differences between saline control and 5-EPP pretreated mice was performed using […] (Prism™ for Windows 4.02, Graphpad Software, Inc., San Diego, Calif.). A value of P<0.05 was considered to be the minimum level of statistical significance. Reference values were determined by analyzing serum from mice injected with saline but not subjected to the CLP procedure.

[3] = tested on: LPS/D-galactosamine model of sepsis; assay: Serum alanine and aspartate transaminase in LPS/D-galactosamine model of sepsis (Example 5); type: in vivo, mice; details: 200 mg/kg ip with LPS (10 μg/kg)/D-galactosamine (600 mg/kg)
Experimental: (§1) Mice were treated simultaneously with LPS (10 μg/kg) and D-galactosamine (600 mg/kg) (Galanos C, Freudenberg M A, Reutter W. Proc Natl Acad Sci USA. 1979, 76 (11):5939-43) and 5-EPP (200 mg/kg) by intraperitoneal route in a separate set of experiments. They were anesthetized with halothane and blood was collected at different times by cardiac puncture and centrifuged to separate serum. The serum levels of alanine transaminase (ALT) and aspartate transaminase (AST) were measured by a commercial diagnostic company (Idexx Laboratories). The serum levels of tumor necrosis factor-alpha (TNF-α), interleukin-6 (IL-6) and interleukin-12 (IL-12) were determined by commercially available mouse enzyme-linked immunosorbent assay (ELISA) kits (BD BioSciences, San Jose, Calif.).
(§2) The methodology utilized in Example 4 was used to measure and analyze the serum enzyme data for statistical significance. The serum levels of proinflammatory cytokines between the 5-EPP treated and saline control groups were analyzed for statistical significance by one-way ANOVA and a Tukey's multiple comparison test (Prism™ for Windows 4.02, Graphpad Software, Inc. San Diego, Calif.).

IL-6 = assay: Serum IL-6 (ELISA) in LPS/D-galactosamine model of sepsis (Example 5); type: in vivo, mice; details: 90 minutes after the treatment
Experimental: as §1, with “Proc Natl Acad Sci USA. 1979, 76 (11):5939-43) and 5-EPP (200 mg/kg) by intraperitoneal route in a separate set of experiments.” left out
as §2

[4] = tested on: LPS/D-galactosamine-induced mortality; assay: LPS/D-galactosamine-induced mortality in mice, survival curve (Example 7, FIG. 2); type: in vivo; details: LPS 20 μg/kg + D-galactosamine 600 mg/kg, monitored 4 days
Experimental: The effects of treatment with 5-EPP on LPS/D-galactosamine-induced mortality was investigated in mice. At least 10 mice in each group were challenged with either a lethal dose of LPS (20 μg/kg) and D-galactosamine (600 mg/kg) or the same dose of LPS/D-galactosamine+different doses of 5-EPP by intraperitoneal route and the morality in each group was monitored at different times for 4 days in order to evaluate the protective effects of 5-EPP against LPS/D-galactosamine-induced mortality.
However, the survival of mice treated with 25 mg/kg of 5-EPP was 45% and 100% at 50 mg/kg, 100 mg/kg and 200 mg/kg with p≦0.0001 as determined by Chi square test.

SMILES: CCc1ccc(=O)n(-c2ccccc2)c1 [5-EPP, 5-ethyl-1-phenyl-2-(1H)-pyridone]
- mortality ([1]; 25 mg/kg i.p. simultaneously with LPS/D-galactosamine): 30% mortality
- mortality ([1]; 50 mg/kg i.p. simultaneously with LPS/D-galactosamine): 5% mortality
- mortality ([1]; 100 mg/kg i.p. simultaneously with LPS/D-galactosamine): 0% mortality
- onset of lethal shock ([1]; lowest dose (25 mg/kg)): delay of the onset of lethal shock
- level of blood urea nitrogen (BUN) ([2]; 3 Hours Post-CLP): 20.8 ± 0.1 (11) mg/dL
- recoverable blood-serum volume (average volume of serum) ([2]; 3 Hours Post-CLP): 238.8 ± 20.11 (13) microliter
- serum level of alanine transaminase (ALT) ([2]; 3 Hours Post-CLP): 159.1 ± 21.2 (11) U/L
- serum level of creatine kinase ([2]; 3 Hours Post-CLP): 2790.4 ± 370.8 (11) U/L
- serum level of glucose ([2]; 3 Hours Post-CLP): 303.9 ± 30.8 (11) mg/dL
- level of blood urea nitrogen (BUN) ([2]; 6 Hours Post-CLP): 19.4 ± 1.0 (12) mg/dL
- recoverable blood-serum volume (average volume of serum) ([2]; 6 Hours Post-CLP): 219.6 ± 16.70 (12) microliter
- serum level of alanine transaminase (ALT) ([2]; 6 Hours Post-CLP): 128.9 ± 28.7 (12) U/L
- serum level of creatine kinase ([2]; 6 Hours Post-CLP): 1950.3 ± 244.1 (12) U/L
- serum level of glucose ([2]; 6 Hours Post-CLP): 116.7 ± 7.7 (12) mg/dL
- level of blood urea nitrogen (BUN) ([2]; 12 Hours Post-CLP): 23 ± 2.3 (12) mg/dL
- recoverable blood-serum volume (average volume of serum) ([2]; 12 Hours Post-CLP): 282.7 ± 27.70 (13) microliter
- serum level of alanine transaminase (ALT) ([2]; 12 Hours Post-CLP): 148.2 ± 12.5 (12) U/L
- serum level of creatine kinase ([2]; 12 Hours Post-CLP): 778.5 ± 91.6 (12) U/L
- serum level of glucose ([2]; 12 Hours Post-CLP): 102.9 ± 5.9 (12) mg/dL
- serum to blood ratio versus saline-control CLP mice ([2]; 200 mg/kg ip, at any time, data not shown): no significant difference
- serum level of alanine transaminase ([3]; After 3 Hours): 109.4 ± 6.1 U/L
- serum level of aspartate transaminase ([3]; After 3 Hours): 131.3 ± 11.9 U/L
- serum level of alanine transaminase ([3]; After 6 Hours): 130.0 ± 8.9 U/L
- serum level of aspartate transaminase ([3]; After 6 Hours): 152.38 ± 14.4 U/L
- serum level of alanine transaminase ([3]; After 12 Hours): 109.5 ± 8.3 U/L
- serum level of aspartate transaminase ([3]; After 12 Hours): 173.38 ± 13.0 U/L
- serum level of IL-6 (IL-6; 50 mg/kg): 9,980 ± 564 pg/mL
- serum level of IL-6 (IL-6; 100 mg/kg): 5,111 ± 343 pg/mL
- serum level of IL-6 (IL-6; 200 mg/kg): 3,578 ± 421 pg/mL
- survival ([4]; 25 mg/kg ip): 45%
- survival ([4]; 50 mg/kg ip): 100%
- survival ([4]; 100 mg/kg ip): 100%
- survival ([4]; 200 mg/kg ip): 100%
